We go through six compounds from patent US20230144619A1, “SALT OF ARYLAMINOPURINE DERIVATIVE, PREPARATION METHOD THEREFOR AND USE THEREOF” (CSPC Zhongqi Pharmaceutical Technology (Shijiazhuang) Co., …, priority 2020, published 2023).

Converted amounts (≈) assume the structure as drawn.

Series [1] can be described thus: Solubility test (UV spectrophotometer, saturated solutions shaken 24 hours). Type of series: physicochemical. The settings on record: for Solubility, Water medium pH = 1.2 / Solubility, Water medium pH = 4.5 / Solubility, Water medium pH = 6.8 / Solubility, Water medium: 25° C.; for Solubility, Water medium pH = 1.2: pH=1.2 hydrochloric acid solution; for Solubility, Water medium pH = 4.5: pH=4.5 phosphate buffer solution; for Solubility, Water medium pH = 6.8: pH=6.8 phosphate buffer solution; for Solubility, Water medium: water (purified water). The protocol:
Detection instrument: Ultraviolet spectrophotometer/Evolution 300
The following solutions with pH=1.2, pH=4.5, and pH=6.8 and water were used as the solvent, and the solvent preparation process was as follows:
(1) pH=1.2 hydrochloric acid solution: To 7.65 mL of hydrochloric acid was added 1000 mL of water, and the mixture was shaken uniformly to obtain the target solution.
(2) pH=4.5 phosphate buffer solution: 6.8 g of potassium dihydrogen phosphate was taken and diluted with water to 1000 mL, and the mixture was shaken uniformly to obtain the target solution.
(2) pH=6.8 phosphate buffer solution: 6.8 g of potassium dihydrogen phosphate and 0.896 g of sodium hydroxide were taken and diluted with water to 1000 mL, and the mixture was shaken uniformly to obtain the target solution.
(4) Water: purified water
Test tubes with stopper were taken, and 10 mL of dissolution media at various pH values were precisely added to the test tubes respectively, and excessive stock drugs were added until supersaturated solutions were formed. The adding amounts were recorded. The solutions were shaken uniformly, sealed with stoppers, and shaken for 24 hours in a shaker. 2 mL of solutions were taken out at different time points respectively, and centrifuged. The resulting supernatants were taken, filtered, and the subsequent filtrates were taken for later use.
The above-mentioned saturated solutions in different solvents were taken, and solvents were added to dilute the solutions to certain volumes. The absorbances were measured at a wavelength of 287 nm.
Preparation of a solution of the reference substance: an appropriate amount of the compound represented by Formula 1 was taken as the reference substance, and precisely weighed. A solvent was added to dissolve and dilute the reference compound to produce a solution containing about 10 μg of the compound represented by Formula 1 per 1 mL. The absorbance was measured at a wavelength of 287 nm to calculate the solubility.
The salts obtained in Examples 1 and 3-17 and the compound represented by Formula 1 were subjected to the solubility test in media and the test results were shown in the following table: […]

Series [2] is described as follows: Accelerated stability test. Type of series: physicochemical. The protocol: Appropriate amounts of the salt samples obtained from Examples 1 and 3-17 were placed at a temperature of 25±2° C. under 0%±5% RH in an open environment for 10 days and at a temperature of 40±2° C. under 75%±5% RH in an open environment for 10 days respectively to perform the accelerated tests, and the results were as follows: […]

Another series can be described thus: Hygroscopicity test. Type of series: physicochemical. As to conditions: 25±1° C., relative humidity 80%±2% (DVS, 80% RH). The procedure: Detection instrument: XPE105DR
(1) A dry stoppered glass weighing bottle was taken, placed in a suitable constant-temperature desiccator at 25° C. 1° C. (with a saturated solution of ammonium chloride or ammonium sulfate in the lower part) or an artificial climate box (with the set temperature of 25° C.±1° C. and the relative humidity of 80%±2%) on the day before the test, and precisely weighed and recorded as the weight (m1).
(2) An appropriate amount of the test sample was taken and spread in the above-mentioned weighing bottle. The thickness of the test sample was generally about 1 mm, and the bottle was precisely weighed and recorded as the weight (m2).
(3) The stopper was removed to open the weighing bottle, and the opened weighing bottle and the stopper were placed under the above-mentioned constant temperature and humidity conditions for 24 hours.
(4) The opened weighing bottle was stoppered, precisely weighed, and recorded as the weight (m3).
Percentage increase in mass=(m3−m2)/(m2−m1)×100%
(5) The description of hygroscopicity characteristics and the definition for the weight gain due to hygroscopicity:
Deliquescence: Sufficient water was absorbed to form a liquid.
Very hygroscopic: the weight gain due to hygroscopicity was not less than 15%.
Hygroscopic: the weight gain due to hygroscopicity was less than 15% but not less than 2%.
Slightly hygroscopic: the weight gain due to hygroscopicity was less than 2% but not less than 0.2%.
Not or nearly not hygroscopic: the weight gain due to hygroscopicity was less than 0.2%.
Appropriate amounts of the salt samples obtained from Examples 1 and 3-17 were subjected to the hygroscopicity test at a temperature of 25±1° C. under a relative humidity of 80%±2%, and the results were as follows: […]

The next series is described as follows: DSC and TGA tests. It counts as physicochemical. As to conditions: onset temperature. The procedure: 6. Differential Scanning Calorimetry-Thermogravimetric Analysis (DSC-TGA)
Detection instrument: NETZSCH STA 449F3
Temperature range: 20° C.-350° C.;
Heating rate: 10.0 (K/min);
7. Differential Scanning Calorimetry (DSC)
Detection instrument: NETZSCH DSC 214 Polyma
Temperature range: 20° C.-250° C.;
Heating rate: 5.0 (K/min);
8. Thermogravimetric Analysis (TGA)
Detection instrument: METTLER and SDT Q600
The salts obtained in Examples 1 and 3-17 and the compound represented by Formula 1 were subjected to the DSC and TGA tests in media, and the test results were shown in the following table: […]

In series [3] the test system is MV4-11 (FLT3-ITD mutation) subcutaneous tumor model. As to conditions: human leukemia MV4-11 transplantation tumors in nude mice, background statement; cited from earlier work.
The subject of series [4] is human non-small cell lung cancer HCC827. The settings on record: lung cancer HCC827 transplantation tumors in nude mice, background statement; cited from earlier work.
In series [5] the test system is K562 (BCR-Abl gene rearrangement) subcutaneous tumor model. As to conditions: human leukemia K562 transplantation tumors in nude mice, background statement; cited from earlier work.
In series [6] the test system is lung cancer (PC-9) transplantation tumors. As to conditions: lung cancer PC-9 transplantation tumors in nude mice, background statement; cited from earlier work.
In another series the test system is leukemia. The settings on record: background statement; cited from earlier work.
For a further series, the system named is lung cancer. As to conditions: background statement; cited from earlier work.
Where [7] appears, read: Placed at 25 ± 2° C. under 0% ± 5% RH in an open environment for 10 days.
Where [8] appears, read: Placed at 40 ± 2° C. under 75% ± 5% RH in an open environment for 10 days.

Turning to `CC(C)n1c(Nc2cccnc2)nc2cnc(Nc3ccc(N4CCN(C)CC4)cc3)nc21` [Example 7], in [1], the “Solubility, Water medium pH = 1.2” value is listed as 43.07 mg/mL; the “Solubility, Water medium pH = 4.5” value stood at 6.51 mg/mL; the “Solubility, Water medium pH = 6.8” value is recorded as 12.24 mg/mL; the “Solubility, Water medium” value turned out to be 6910 µg/mL (≈ 15.6 mM). For the same compound, the Appearance result in [2] (setting [7]) was “Yellow solid”. In addition, the Appearance entry in series [2] (setting [8]) is recorded as “Yellow solid”. In addition, in “Hygroscopicity test”, the Hygroscopicity entry was “Slightly hygroscopic (the weight gain due to hygroscopicity was less than 2% but not less than 0.2%.)” and the “Weight gain due to hygroscopicity” value was 1.19%. In “DSC and TGA tests”, the “TGA: starting to lose the acid” value was ~180 °C (see FIG. 27) and the “TGA: starting to lose the water of crystallization” value (“TGA: starting to lose the water” for short) is “crystallization at about 40° C.;”.

As to `CC(C)n1c(Nc2cccnc2)nc2cnc(Nc3ccc(N4CCN(C)CC4)cc3)nc21` [Example 10], in series [1], the “Solubility, Water medium pH = 1.2” value is given as 66.52 mg/mL; the “Solubility, Water medium pH = 4.5” value turned out to be 13.98 mg/mL; the “Solubility, Water medium pH = 6.8” value is 6.36 mg/mL; the “Solubility, Water medium” value worked out at 2490 µg/mL (≈ 5.61 mM). Also, the Appearance result in series [2] (setting [7]) is listed as “Yellow solid”. Moreover, the Appearance result in [2] (setting [8]) is recorded as “Yellow solid”. In “Hygroscopicity test”, the Hygroscopicity result is on record as “Slightly hygroscopic (the weight gain due to hygroscopicity was less than 2% but not less than 0.2%.)” and the “Weight gain due to hygroscopicity” value was 0.54%. Also, in “DSC and TGA tests”, the “TGA: starting to lose the acid” value is ~170 °C (see FIG. 30) and the “TGA: starting to lose the water” value is “crystallization at about 40° C.;”.

`CC(C)n1c(Nc2cccnc2)nc2cnc(Nc3ccc(N4CCN(C)CC4)cc3)nc21` [Example 11]: in series [1], the “Solubility, Water medium pH = 1.2” value was 87.38 mg/mL; the “Solubility, Water medium pH = 4.5” value was 16.13 mg/mL; the “Solubility, Water medium pH = 6.8” value was found to be 8.61 mg/mL; the “Solubility, Water medium” value is 27780 µg/mL (≈ 62.6 mM). Also, the Appearance entry in [2] (setting [7]) was “Yellow solid”. For the same compound, the Appearance entry in [2] (setting [8]) is “Yellow solid”. For the same compound, in the series “Hygroscopicity test”, the Hygroscopicity entry is recorded as “Slightly hygroscopic (the weight gain due to hygroscopicity was less than 2% but not less than 0.2%.)” and the “Weight gain due to hygroscopicity” value turned out to be 0.68%. For the same compound, in “DSC and TGA tests”, the “TGA: starting to lose the acid” value is ~220 °C (see FIG. 31) and the “TGA: starting to lose the water” value was “crystallization at about 40° C.;”.

Regarding `CC(C)n1c(Nc2cccnc2)nc2cnc(Nc3ccc(N4CCN(C)CC4)cc3)nc21` [Example 14], in series [1], the “Solubility, Water medium pH = 1.2” value is 41.47 mg/mL; the “Solubility, Water medium pH = 4.5” value stood at 0.72 mg/mL; the “Solubility, Water medium pH = 6.8” value was determined as 0.03 mg/mL; the “Solubility, Water medium” value came to 40 µg/mL (≈ 0.0902 mM). For the same compound, in series [2] (setting [7]), the Appearance entry is listed as “Off-white solid”. Also, the Appearance result in series [2] (setting [8]) was “Off-white solid”. In addition, in “Hygroscopicity test”, the Hygroscopicity entry was “Slightly hygroscopic (the weight gain due to hygroscopicity was less than 2% but not less than 0.2%.)” and the “Weight gain due to hygroscopicity” value was determined as 1.59%. Also, in “DSC and TGA tests”, the “TGA: starting to lose the acid” value was ~80 °C (see FIG. 37) and the “TGA: starting to lose the water” value was “crystallization at about 40° C.;”.

Regarding `CC(C)n1c(Nc2cccnc2)nc2cnc(Nc3ccc(N4CCN(C)CC4)cc3)nc21` [Example 15], in series [1], the “Solubility, Water medium pH = 1.2” value is recorded as 96.58 mg/mL; the “Solubility, Water medium pH = 4.5” value amounted to 45.67 mg/mL; the “Solubility, Water medium pH = 6.8” value was 27.84 mg/mL; the “Solubility, Water medium” value amounted to 63570 µg/mL (≈ 143 mM). In addition, the Appearance entry in series [2] (setting [7]) is given as “Off-white solid”. For the same compound, the Appearance entry in series [2] (setting [8]) is given as “Off-white solid”. Also, in “Hygroscopicity test”, the Hygroscopicity result is “Hygroscopic (the weight gain due to hygroscopicity was less than 15% but not less than 2%.)” and the “Weight gain due to hygroscopicity” value is recorded as 2.59%. For the same compound, in “DSC and TGA tests”, the “TGA: starting to lose the acid” value was ~80 °C (see FIG. 39) and the “TGA: starting to lose the water” value is given as “crystallization at about 40° C.;”.

Regarding `CC(C)n1c(Nc2cccnc2)nc2cnc(Nc3ccc(N4CCN(C)CC4)cc3)nc21` [The compound represented by Formula 1, 9-isopropyl-2-(4-(4-methylpiperazin-1-yl)anilino)-8-(pyridine-3-amino)-9H-purine], in series [1], the “Solubility, Water medium pH = 1.2” value is recorded as 12.60 mg/mL; the “Solubility, Water medium pH = 4.5” value is given as 0.57 mg/mL; the “Solubility, Water medium pH = 6.8” value is 0.04 mg/mL; the “Solubility, Water medium” value stood at 50 µg/mL. Further, the “solubility in water (in words)” value in series [1] (water) is “insoluble in water”. In “Hygroscopicity test”, the Hygroscopicity entry is recorded as “Slightly hygroscopic (the weight gain due to hygroscopicity was less than 2% but not less than 0.2%.)” and the “Weight gain due to hygroscopicity” value is on record as 0.45%. In “DSC and TGA tests”, the “TGA: starting to decompose” value was ~155 °C (see FIG. 42). The “efficacy on transplantation tumors” value in [3] is “remarkable efficacy”. In addition, the “efficacy on transplantation tumors” value in series [4] is on record as “remarkable efficacy”. Further, the “efficacy on transplantation tumors” value in [5] is reported as “remarkable efficacy”. The “efficacy on transplantation tumors” value in series [6] is on record as “remarkable efficacy”. Also, the “anti-leukemia activity compared with Sunitinib” value in the series with leukemia is given as “better than that of Sunitinib”. In addition, in the series on lung cancer, the “anti-lung cancer activity compared with Gefitinib” value is “comparable to that of Gefitinib”.
